One compound from patent publication US6894032B2, “Use of CDP-choline for the treatment of alcohol withdrawal syndrome” (Ferrer Internacional, S.A., priority 2000, dated 2005) can be followed below.

The test system of experiment [1] is patients with alcohol withdrawal syndrome. Put plainly: Open clinical study of CDP-choline in alcohol withdrawal syndrome. The format is in vivo, humans. On the procedure:
The progress of alcohol withdrawal syndrome was assessed in an open study conducted in 197 patients. CDP-choline was administered at doses of 500 mg/d i.m. or 600 mg/d p.o. for 60 days. […] At 60 days, 55.83% of patients had given up drinking alcohol and 31.97% of patients drank much less.

For experiment [2] the test system is unchanged. Put plainly: Open, randomized, comparative clinical study of CDP-choline in alcohol withdrawal syndrome versus clomethiazole and vitamin B. The format is in vivo, humans. To be noted: CDP-choline 500 mg i.m. every 12 h for 30 days, then 200 mg p.o. every 8 h, plus conventional therapy; versus conventional therapy alone; 20 patients per group; at 30 days. On the procedure:
An open, randomized and comparative study on the conventional therapy of alcohol withdrawal syndrome was conducted in 40 patients. Patients were randomly distributed in two groups of 20. One of the groups was used as control and received clomethiazole and vitamin B1, B6 and B12. This treatment regimen was maintained for 8 days, and then patients were given diazepam until completion of treatment (60 days). The other group of patients received the same treatment regimen plus CDP-choline 500 mg i.m. every 12 h for the first 30 days and CDP-choline 200 mg p.o. every 8 h for the remaining 30 days.

Where [3] appears, read: 197 patients, 500 mg/d i.m. or 600 mg/d p.o. for 60 days, at 60 days.

For the compound `C[N+](C)(C)CCOP(=O)(O)OP(=O)([O-])OC[C@H]1O[C@@H](n2ccc(N)nc2=O)[C@H](O)[C@@H]1O` [CDP-choline, cytidine diphosphate choline], the “anxiety, tremor, disorientation, insomnia, dysarthria, tendency to suicide and neuritic pains” value in experiment [1] (500 mg/d i.m. or 600 mg/d p.o. for 60 days) is “significant improvement”. For the same compound, in experiment [1] (setting [3]), the “patients who drank much less” value is 31.97% and the “patients who had given up drinking alcohol” value is recorded as 55.83%. Also, the “assessments of progress of alcohol withdrawal syndrome” value in experiment [1] (at 30 and 60 days following treatment, p<0.001) is recorded as “significant differences”. The “tremor incidence (p<0.05), cramps (p<0.05), asthenia (p<0.05), emotional lability (p<0.01), nervousness (p<0.05) and social withdrawal (p<0.05)” value in experiment [2] is reported as “significant differences versus control”.
